The values that follow come from patent US7996156B2, “Methods for predicting properties of molecules” (priority 2002, dated 2011).

Details of assay [1]: unit not given here. The settings on record: Minimal Inhibitory Concentration; cited from earlier work.
The nature of assay [2]: Minimum inhibitory concentration of cephalosporin antibiotics. It is filed as cell-based. Further details: unit not given here. From the text:
This example describes the application of the disclosed CoSCoSA methods to model the minimum inhibitory concentration of cephalosporin antibotics, using only the through-bond (COSY-type) connections between carbons and between carbons and nitrogens in their structures. Bin sizes of 3 ppm by 3 ppm for carbon to carbon bins were used, and 10 ppm by 3 ppm for the nitrogen to carbon bins. […] The structures of the cephalosporins used in the model are shown below.

A further assay addresses T1, aromatase enzyme (Homo sapiens, UniProt P11511).
T1 sequence (P11511 1-503): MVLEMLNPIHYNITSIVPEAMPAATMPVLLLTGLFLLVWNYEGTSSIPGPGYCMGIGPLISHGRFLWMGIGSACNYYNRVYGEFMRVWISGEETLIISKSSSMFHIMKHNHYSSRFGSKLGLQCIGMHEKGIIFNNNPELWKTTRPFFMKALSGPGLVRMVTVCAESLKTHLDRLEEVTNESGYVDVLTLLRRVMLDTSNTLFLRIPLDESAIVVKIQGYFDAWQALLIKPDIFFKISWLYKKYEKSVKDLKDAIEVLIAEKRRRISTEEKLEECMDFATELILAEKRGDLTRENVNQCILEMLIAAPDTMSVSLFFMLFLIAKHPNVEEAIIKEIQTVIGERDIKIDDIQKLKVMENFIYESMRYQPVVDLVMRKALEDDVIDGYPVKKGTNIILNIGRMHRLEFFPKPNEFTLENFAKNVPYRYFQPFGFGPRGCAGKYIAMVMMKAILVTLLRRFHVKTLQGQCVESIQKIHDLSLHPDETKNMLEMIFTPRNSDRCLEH
To be noted: 50 steroids of Table 8; cited from earlier work.

The next assay deals with T2, estrogen receptor (Rattus norvegicus, UniProt P06211).
T2 construct: in rat uterine cytosol, which was obtained from ovariectomized uteri of Sprague-Dawley rats; from tissue; host or cells: uterine cytosol of ovariectomized Sprague-Dawley rats
T2 sequence (P06211 1-600): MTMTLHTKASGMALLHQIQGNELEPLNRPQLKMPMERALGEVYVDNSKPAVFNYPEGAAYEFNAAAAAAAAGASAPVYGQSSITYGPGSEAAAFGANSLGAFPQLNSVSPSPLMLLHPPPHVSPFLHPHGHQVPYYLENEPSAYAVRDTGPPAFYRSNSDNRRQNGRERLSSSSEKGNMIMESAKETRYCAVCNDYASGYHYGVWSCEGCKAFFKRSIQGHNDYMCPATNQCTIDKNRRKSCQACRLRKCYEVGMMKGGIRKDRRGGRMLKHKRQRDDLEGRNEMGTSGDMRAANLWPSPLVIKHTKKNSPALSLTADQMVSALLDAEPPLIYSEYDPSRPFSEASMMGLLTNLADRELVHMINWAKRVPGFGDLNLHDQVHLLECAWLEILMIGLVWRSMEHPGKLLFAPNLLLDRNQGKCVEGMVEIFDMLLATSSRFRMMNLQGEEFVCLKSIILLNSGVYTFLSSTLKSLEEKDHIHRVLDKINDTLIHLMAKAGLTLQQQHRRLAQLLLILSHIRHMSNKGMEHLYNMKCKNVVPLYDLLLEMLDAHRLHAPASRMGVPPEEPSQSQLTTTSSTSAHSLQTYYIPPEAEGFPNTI
The settings on record: background statement; cited from earlier work.

SMILES strings stand for the structures.

`CO[C@@]1(NC(=O)CSCC#N)C(=O)N2C(C(=O)O)=C(CSc3nnnn3C)CS[C@@H]21` [Cefmetazole]: in assay [1], the MIC is 16. Moreover, in assay [2], the “Log(1/MIC)” value is reported as −1.20. As for `CO[C@@]1(NC(=O)Cc2cccs2)C(=O)N2C(C(=O)O)=C(COC(N)=O)CS[C@@H]21` [Cefoxitin], the MIC in assay [1] was 16. Moreover, the “Log(1/MIC)” value in assay [2] is recorded as −1.20. For the compound `CC(C)(O/N=C(\C(=O)N[C@@H]1C(=O)N2C(C(=O)[O-])=C(C[n+]3ccccc3)CS[C@H]12)c1csc(N)n1)C(=O)O` [Ceftazidime], in assay [1], the MIC is 16. In assay [2], the “Log(1/MIC)” value was −1.20. Turning to `CO/N=C(\C(=O)N[C@@H]1C(=O)N2C(C(=O)O)=CCS[C@H]12)c1csc(N)n1` [Ceftizoxime], the MIC in assay [1] is recorded as 8. The “Log(1/MIC)” value in assay [2] is reported as “−.90”.

As for `CO/N=C(\C(=O)N[C@@H]1C(=O)N2C(C(=O)O)=C(COC(N)=O)CS[C@H]12)c1ccco1` [Cefuroxime], in assay [1], the MIC is recorded as 4. In addition, in assay [2], the “Log(1/MIC)” value is recorded as “−.60”.

Consider `CC1=C(C(=O)O)N2C(=O)[C@@H](NC(=O)[C@H](N)c3ccccc3)[C@H]2SC1` [Cephalexin], for which the MIC in assay [1] is listed as 8. For the same compound, in assay [2], the “Log(1/MIC)” value is recorded as “−.90”. Turning to `CC(=O)OCC1=C(C(=O)O)N2C(=O)[C@@H](NC(=O)Cc3cccs3)[C@H]2SC1` [Cephalothin], the MIC in assay [1] is 8. Also, the “Log(1/MIC)” value in assay [2] is on record as “−.90”. As to `CC(=O)OCC1=C(C(=O)O)N2C(=O)[C@@H](NC(=O)CSc3ccncc3)[C@H]2SC1` [Cephapirin], the MIC in assay [1] is 8. For the same compound, the “Log(1/MIC)” value in assay [2] was “−.90”. For `CC1=C(C(=O)O)N2C(=O)[C@@H](NC(=O)[C@H](N)C3=CCC=CC3)[C@H]2SC1` [Cephradine], the MIC in assay [1] is reported as 8. The “Log(1/MIC)” value in assay [2] was “−.90”. As to `C/C=C1\CC2C(CC[C@]3(C)C(=O)CCC23)[C@@]2(C)CCC(=O)C=C12` (some centres unmarked) [compound 50], the “Binding (experimental binding data, aromatase enzyme)” value on aromatase enzyme is given as 0.96. On to `C/C(=C(/C)c1ccc(O)cc1)c1ccc(O)cc1` [dimethystilbesterol], for which, on estrogen receptor, the “binding to the estrogen receptor (in words)” value was “bind strongly”.
